Measured values taken from a melting point compilation (Tetko et al.; mined from patent text by program, amines drawn as free bases though some values may be those of a salt).

Row | SMILES | melting point
1 | C(=C\c1nc(COc2ccc(CCCn3ccnc3)cc2)co1)/c1ccccc1 | 127 to 128 °C
2 | CC(C)(CO)Cc1ccc2cc(CC(C)(C)CO)ccc2c1 | 162 to 165 °C
3 | Cn1nnnc1-c1cnc2cc(F)c(F)cc2c1O | > 300 °C
4 | CCNS(=O)(=O)c1ccc(C(O)c2ccc3c(c2)C(C)(C)CCC3(C)C)cc1 (stereo unspecified) | 175 °C
5 | Cc1oc(-c2ccco2)nc1CCOc1ccc(N)cn1 | 88 to 90 °C
6 | Cc1nnc(-c2ccc3occ(-c4ccc(S(C)=O)c(OC(F)(F)F)c4)c3c2)o1 (stereo unspecified) | 182 to 183 °C
7 | COC(=O)Nc1nc(-c2ccccc2)c(-c2nc3ccccc3c(=O)n2-c2ccccc2OC)s1 | 228 to 230 °C
8 | O=C(O)c1cc(Br)sc1Cl | 159 to 160 °C
9 | O=C(CCCCl)c1cc2c(s1)SCCNC2=O | 124 to 125 °C
10 | COc1ccn2c(C)c(CCc3ccc4nc(O)oc4c3)nc2c1 | 255 to 257 °C
11 | O=C(Nc1ccc(C(=O)N2Cc3cccnc3Oc3ccccc32)cn1)c1ccccc1-c1ccccc1 | 107 to 114 °C
12 | COc1cc2c(cc1-c1cccnc1)-c1c(-c3cccs3)c3c(n1CC2)C(=O)N(C(C)C)CCN(C(=O)OC(C)(C)C)C3 | 207 to 208 °C
13 | COc1ccc(Sc2ncccc2C(=O)NCC23CC4CC(CC(C4)C2)C3)cc1 | 130 to 131 °C
14 | CN(CC(=O)N1c2ccccc2N(Cc2ccccc2)C(=O)[C@H]2CCC[C@H]21)Cc1ccccc1 (relative stereo) | 75 to 78 °C
15 | COc1cccc2c(C)c3n(c(=O)c12)CCCS3 | 122 to 123 °C
16 | CCCc1nc(C(O)C(C)C)c(C#N)n1Cc1ccc(-c2ccccc2-c2nnnn2C(c2ccccc2)(c2ccccc2)c2ccccc2)cc1 (stereo unspecified) | 154 to 155 °C
17 | CCOCc1nc2c(N)nc3cc(OCCOCc4ccccc4)ccc3c2n1CC(C)(C)O | 131 to 132 °C
18 | CCCCCCCCCCCCCCCC(=O)Oc1c(F)c(F)c(F)c(F)c1F | 42 to 44 °C
19 | CSC1=Nc2ccccc2N(C)c2cscc21 | 113 to 115 °C

Row | SMILES | melting point
20 | CCCCC(CC)COc1ccc(-c2nc(-c3ccc(OCC(CC)CCCC)cc3O)nc(-c3cccn3Cc3ccccc3)n2)c(O)c1 (stereo unspecified) | 66 to 68 °C
21 | OC(CN1CCNC1=S)c1ccc(Cl)cc1 (stereo unspecified) | 153 °C
22 | COc1cc(COc2nn(-c3ccccc3)cc2C#N)ccc1OCc1nc(-c2ccccc2)oc1C | 174 to 175 °C
23 | COc1ccc2nc(NN)nc(-c3ccccc3)c2c1 | 151 to 152 °C
24 | Brc1ccc(Cc2ccc(Br)cc2)cc1 | 62 to 62.5 °C
25 | CC(C)(C)c1cc(N=C2CCc3cc4c(nc32)C(=Nc2cc(C(C)(C)C)cc(C(C)(C)C)c2)CC4)cc(C(C)(C)C)c1 | 177 to 183 °C
26 | CCOC(=O)c1cn(C2CC2)c2nc(N3C[C@@H](CN(CC)C(=O)C(F)(F)F)[C@@H](F)C3)c(F)cc2c1=O (relative stereo) | 150 to 153 °C
27 | Cn1cncc1C(O)(c1ccc(Cl)cc1)c1ccc2c(c1)c(-c1cccc(Cl)c1)cc(=O)n2C (stereo unspecified) | 234 °C
28 | N#Cc1cccc2c(Cl)ccc([N+](=O)[O-])c12 | 210 to 212 °C
29 | CCCCCCN1C(=O)NC(=O)C1O (stereo unspecified) | 96 to 97 °C
30 | COc1cccc2cc(C(=O)Nc3ccc(-n4nc(C(F)(F)F)cc4C(F)(F)F)cc3)oc12 | 109 to 110 °C
31 | CC(C)(C)c1cc(-n2ccc(=O)[nH]c2=O)cc(-c2ccc3cc(NS(C)(=O)=O)ccc3c2)c1Cl | > 280 °C
32 | CON=C(C)c1ccc(NS(C)(=O)=O)c(Sc2ccc(F)cc2F)c1 | 110 to 111 °C
33 | Cc1cc(C)n(-c2nc(Nc3ccc4ccccc4c3)c3ccccc3n2)n1 | 213 to 216 °C
34 | CC(C)(C)OC(=O)N1CCN(C[C@H](O)Cn2c3ccccc3c3cc(Br)ccc32)CC1 | 75 to 85 °C
35 | CC(C)[Si](C#Cc1ccc(-c2nc3cc(C#N)c(C#N)cc3[nH]2)cc1)(C(C)C)C(C)C | 347 to 348 °C
36 | COc1c(N2C[C@H]3C(CF)C[C@@]3(N)C2)c(F)cc2c(=O)c(C(=O)O)cn([C@@H]3C[C@@H]3F)c12 (stereo partly specified) | 122 to 125 °C
37 | CC(Oc1ccc(F)cc1)c1ccnn2cnnc12 (stereo unspecified) | 103 to 104 °C
38 | CC1(C)CN(CCN2CCN(c3cccc(Cl)c3)C2=O)C1 | 84 to 85 °C

Row | SMILES | melting point
39 | CC(=O)OCc1ccc(S(=O)(=O)c2ccc(C)nc2Nc2c(C)cc(C)cc2C)cc1 | 132 to 134 °C
40 | CCCn1c(CCOC)nc2c(N)nc3cc(OC4CCN(C(=O)C(C)C)CC4)ccc3c21 | 165 to 166 °C
41 | C[C@@H](n1cnc2c(Cl)cccc2c1=O)[C@](O)(Cn1cncn1)c1ccc(F)cc1F | 110 to 113 °C
42 | COc1cccc(N2CCN(C[C@H](CC3CCCCC3)NC(=O)C3CCCCC3)CC2)n1 | 107 to 109 °C
43 | c1cnc2c(c1)-c1sccc1C2Cc1ccncc1 (stereo unspecified) | 178 to 181 °C
44 | CCCCCCCCCCCCCCC(O)=S | 60 to 62 °C
45 | COc1ccc2c(Cc3c(Cl)cncc3Cl)nnc(N3CCOCC3)c2c1 | 179 to 180 °C
46 | Cc1cc2nc(Cl)sc2cc1C | 175 °C
47 | Cc1cccc(-c2sc(N)nc2-c2ccnc(-c3ccc(OC(F)(F)F)cc3)c2)n1 | 232 °C
48 | Cc1cccc2c1nc(-c1ccccc1Cl)n2CC(C)O (stereo unspecified) | 164 to 165 °C
49 | CC(CCNC1=Nc2ccc(Br)c3cccc1c23)n1ccnc1 (stereo unspecified) | 240 to 241 °C
50 | CCc1nc2cc(Cn3ccnc3)ccc2n1C | 127 °C
51 | Cc1c(-c2ccc(C(F)(F)F)cc2)n(Cc2ccc(OCCN3CCCCC3)cc2)c2ccc(O)cc12 | 174 °C
52 | Cn1c(C(N)=O)c(-c2ccc(F)cc2)c2cccnc2c1=O | 329 to 330 °C
53 | O=C(c1ccc(Cl)cc1)c1nccc2ccccc12 | 100 to 101 °C
54 | O=C1Nc2ccccc2C12CCCC2Br (stereo unspecified) | 238 to 240 °C
55 | CC1c2cccc3c2N(CC3)c2ccccc2N1C(=O)CCBr (stereo unspecified) | 149 to 151 °C
56 | Clc1ccc2nc(NCC3CCN(CC4COc5ccccc5O4)CC3)sc2c1 (stereo unspecified) | 156 °C

Next, values leading:

Row | melting point | SMILES
57 | 69 to 71 °C | CCCc1c(OCCCC(=O)NCCCCCCc2cccnc2)ccc(C(C)=O)c1O
58 | 71 to 72 °C | CC(C)=CCS(=O)(=O)c1ccc(C)cc1
59 | 58 to 60 °C | CCCc1c(OCCOc2cccc(C(=O)OCC)c2)ccc(C(C)=O)c1O
60 | 70 to 73 °C | CC(O)(COc1ccc(C(=O)c2ccccc2)cc1)C(F)(F)F (stereo unspecified)
61 | 94 °C | O=C(O)CCNc1ccccc1CNC(=O)C1Cc2ccccc2N1S(=O)(=O)c1ccc(-c2cccc(C(F)(F)F)c2)cc1 (stereo unspecified)
62 | 115 to 117 °C | CC(C)(C)OC(=O)N1CCN(c2ccccc2O)CC1
63 | 186 to 189 °C | CC(=O)c1c(C)c(NC(=O)OCC(Cl)(Cl)Cl)c(C)c2c1OCC2c1ccc(C(C)C)cc1 (stereo unspecified)
64 | 172 to 173 °C | O=C(Nc1cccc(C(F)(F)F)c1)N1CCCCc2cc(O)ccc21
65 | 212 to 214 °C | CCN1C(=O)C(C(=O)Nc2ccc(F)cc2)c2cc3c(cc21)C=CCO3 (stereo unspecified)
66 | 148 to 150 °C | CON=C(Nc1nc(OC)nc(OC)n1)NS(=O)(=O)c1ccccc1S(=O)(=O)OC
67 | 91 to 93 °C | CCN1C[C@@H](O)[C@H](N(C)C(=O)c2ccc(Cl)cc2)C1 (relative stereo)
68 | 153 to 156 °C | Cc1cnc(C2=NC(C)(C(C)C)C(=O)N2)c(C(=O)C(=O)N(C)c2ccccc2)c1 (stereo unspecified)
69 | 262 °C | Cc1ccnc(NC(=O)c2nc3ccccc3[nH]2)c1
70 | 187 to 188 °C | Cc1nc(N2CCN(Cc3ccc(OC(F)(F)F)cc3)C2=O)sc1C(=O)Nc1ccccc1
71 | 87 to 91 °C | O=C(O)CCC#Cc1ccccc1Br
72 | 150 to 151 °C | Cc1cc(NC(=O)c2cccc(CCc3cc(Nc4ccccc4)n[nH]3)c2)ccc1C(C)C
73 | 174 °C | CCOC(=O)c1cccc(NC(=O)NCC(=O)O)c1
74 | 74.5 to 76 °C | CCN(CC)C(=O)c1ccc([N+](=O)[O-])c(C)c1
75 | 158 to 160 °C | CCc1ccc(COc2cccc3c2CN(C2CCC(=O)NC2=O)C3=O)cc1 (stereo unspecified)
76 | 142 to 145 °C | COc1ccc(S(=O)(=O)C2(C(=O)NO)CCN(CC=C(C)C)CC2)cc1

Row | melting point | SMILES
77 | 107 to 109 °C | CCOC(=O)C(Cc1ccc(C)c(C)c1)(NC(C)=O)C(=O)OCC
78 | 125 to 128 °C | CCOC(=O)N(C)CCCC1c2cccc3c2N(CC3)c2ccccc2N1C(C)=O (stereo unspecified)
79 | 94 to 95 °C | C=CCOC(=O)NS(=O)(=O)CCc1cc(OCCCC)nn1Cc1ccc(Cl)cc1Cl
80 | 48.5 to 49.7 °C | Cc1oc(-c2ccccc2)nc1CCOc1ccc(CC(C(=O)O)C(=O)N(C)C)cc1 (stereo unspecified)
81 | 36 to 44 °C | CCOC(=O)C(C)Oc1ccc(OCc2ccccc2)cc1 (stereo unspecified)
82 | 132 to 134 °C | N=C(N)NCCCOc1ccc2cc(CC(=O)O)c(=O)n(Cc3ccccc3)c2c1
83 | 222 to 223 °C | CN(C)c1c(C(N)=O)cnc2c(NC(=O)c3c(Cl)cccc3Cl)cccc12
84 | 65 °C | CCCCOc1cc(/C=C(\OCC)C(=O)O)ccc1CCCc1ccc(OC)cc1
85 | 108 to 110 °C | COC(=O)NC(CCc1ccccc1)C(=O)O (stereo unspecified)
86 | 120 °C | O=C(Cc1ccc(I)cc1)NC[C@H]1CCCN1
87 | 167 to 168 °C | COc1ccc(C(=O)Nc2ccc(OCCCl)cc2)c(N)c1
88 | 225 to 230 °C | CCc1ccc2c(c1)C=Cc1cc(C)ccc1C2c1cn(-c2ccc(SCC(=O)O)nn2)c(=O)[nH]c1=O (stereo unspecified)
89 | 88 °C | COC(=O)/C(=C/C=C/c1ccc2ccccc2n1)OC
90 | 189 to 190 °C | CCOC(=O)CCC(CC(=O)c1ccc(NCc2ccc3ccc4nc(C)[nH]c(=O)c4c3c2)cc1)C(=O)OCC (racemic)
91 | 243 to 244 °C | Cc1[nH]c2ncnc(Nc3cccc(Br)c3)c2c1C
92 | 161 to 163 °C | CCC(CC)(CO)NC(=S)NC(=O)c1ccccc1
93 | 118 to 120 °C | CN(CCOc1cccc2cc(S(=O)(=O)c3ccccc3)n(C(=O)OC(C)(C)C)c12)C(=O)OC(C)(C)C
94 | 65 to 67 °C | Cc1cc(C)c(C(=O)c2ccccc2C)c(O)c1
95 | 283 to 285 °C | NC(=O)c1cccc(C(N)=O)c1[N+](=O)[O-]
96 | 188 to 190 °C | CCOC(=O)c1cccc2[nH]c(=O)oc(=O)c12
